Experimental data from patent US8664236B2, “1H-pyrrolo[2,3 b]-pyridine derivatives” (Merck Patent GmbH, priority 2010, dated 2014).
pIC50: −log10 of the molar value. Values after ≈ are worked out from the molar mass of the structure shown. Where two headings read alike, the source gives them in different places.

Legend:
[1] = Solubility; format: physicochemical; settings: Table I
[2] = biological target: PDK1 kinase in PC3 cells (PKB phosphorylation at Thr 308) (Homo sapiens (Human), UniProt O15530); experiment: Cellular testing of PDK1 kinase inhibitors in PC3 cells (Luminex, phospho-T308-PKB); format: cell-based; settings: for pIC50: PKB phosphorylation at Thr 308 in PC3 cells, read-out: cellular IC50; for IC50: Table I comparison, read-out: PDK1 inhibition assay cellular IC50
Protocol: Method for the Cellular Testing of PDK1 Kinase Inhibitors in PC3 Cells
The cellular assay for the determination of the PDK1 kinase activity is carried out as a Luminex assay in the 96-well format. PC3 cells are sown at 20,000 cells per well in 100 μl of medium (45% of […]/45% of Ham's F12/10% of FCS) and incubated on the following day for 30 min with a serial dilution of the test substance (7 concentrations) under serum-free conditions. The cells are subsequently lysed using 90 μl of lysis buffer (20 mM tris/HCl pH 8.0, 150 mM NaCl, 1% of NP40, 10% of glycerol, 1% of phosphatase inhibitor I, 1% of phosphatase inhibitor II, 0.1% of protease inhibitor cocktail III, 0.01% of benzonase) per well, and the lysates are separated off from insoluble cell constituents by means of centrifugation through a 96-well filter plate (0.65 μm). The lysates are incubated overnight at 4° C. with shaking with Luminex beads to which an anti-total PKB antibody is coupled. The detection is carried out on the following day by addition of a phospho-T308-PKB antibody and a species-specific […] secondary antibody. The detection of phospho-T308-PKB is carried out by measurement in a Luminex100 instrument by determination of 100 events per cavity in a measurement time of 60 sec. […] The values of the batches treated with test substance are calculated therefrom as percentage of control, and IC50 values are determined by means of RS1.

[3] = biological target: PDK1 (His6-PDK1(Δ1-50)) (Homo sapiens (Human), UniProt O15530); experiment: Test for the inhibition of PDK1 (enzymatic, flashplate, 33P-ATP); format: biochemical
Protocol: 4. Test for the Inhibition of PDK1
The experimental batches are carried out in a flashplate system with 384 wells/microtitration plate.
The test substances are employed in corresponding concentrations (if desired in a dilution series). The control is carried out without test substance. The reaction is stopped using standard methods and washed. The activity of the kinase is measured via the incorporated radioactivity in top count. In order to determine the non-specific kinase reaction (blank value), the experimental batches are carried out in the presence of 100 nM staurosporine.
The radioactivity (decompositions per minute) of the blank value (no use of test substance in the presence of staurosporine) is subtracted from all other radioactivity values. The controls (kinase activity without test substance) are set equal to 100 percent and all other radioactivity values (after subtracting the blank value) are expressed set in relation thereto (for example in % of the control).

[4] = Table I comparison, read-out: PDK1 inhibition assay enzymatic IC50
[5] = enzymatic PDK1 inhibition assay, read-out: enzymatic IC50

Sequence of PDK1 (His6-PDK1(Δ1-50)) (O15530 51-556): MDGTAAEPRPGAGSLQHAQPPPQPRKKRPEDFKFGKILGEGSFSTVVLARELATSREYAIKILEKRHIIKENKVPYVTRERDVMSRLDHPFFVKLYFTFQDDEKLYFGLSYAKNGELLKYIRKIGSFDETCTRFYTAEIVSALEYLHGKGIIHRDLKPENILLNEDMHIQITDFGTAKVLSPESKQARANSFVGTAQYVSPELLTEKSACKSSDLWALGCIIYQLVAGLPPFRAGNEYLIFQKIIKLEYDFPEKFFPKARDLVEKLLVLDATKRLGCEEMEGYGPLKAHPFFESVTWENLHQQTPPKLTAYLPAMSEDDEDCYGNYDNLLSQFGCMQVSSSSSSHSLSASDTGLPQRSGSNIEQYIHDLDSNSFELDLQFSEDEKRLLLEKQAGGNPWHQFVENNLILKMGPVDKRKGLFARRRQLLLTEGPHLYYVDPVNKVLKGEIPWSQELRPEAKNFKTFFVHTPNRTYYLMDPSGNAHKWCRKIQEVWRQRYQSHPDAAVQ
Sequence of PDK1 kinase in PC3 cells (PKB phosphorylation at Thr 308) (O15530 whole entry): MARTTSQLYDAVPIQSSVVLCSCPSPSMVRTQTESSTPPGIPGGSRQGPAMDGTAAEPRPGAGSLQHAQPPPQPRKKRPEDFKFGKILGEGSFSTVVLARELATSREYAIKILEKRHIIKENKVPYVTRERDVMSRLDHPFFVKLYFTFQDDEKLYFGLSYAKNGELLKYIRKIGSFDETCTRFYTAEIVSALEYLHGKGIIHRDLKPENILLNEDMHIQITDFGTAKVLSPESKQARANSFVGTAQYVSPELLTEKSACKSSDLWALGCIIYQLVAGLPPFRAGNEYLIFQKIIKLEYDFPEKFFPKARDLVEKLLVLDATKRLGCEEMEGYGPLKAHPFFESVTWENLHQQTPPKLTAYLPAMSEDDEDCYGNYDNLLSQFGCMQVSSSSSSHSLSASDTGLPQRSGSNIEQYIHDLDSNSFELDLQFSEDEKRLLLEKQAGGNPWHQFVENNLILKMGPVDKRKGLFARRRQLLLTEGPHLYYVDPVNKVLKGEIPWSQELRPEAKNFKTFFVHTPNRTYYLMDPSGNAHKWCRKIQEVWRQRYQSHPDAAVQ

| Compound | solubility [1] [µg/mL] | pIC50 [2] | IC50 ([2]; values in nM) [nM] | pIC50 [3, 4] | pIC50 [3, 5] | IC50 ([2]; values given in μM) [nM] |
| --- | --- | --- | --- | --- | --- | --- |
| Cn1cc(-c2cnc3[nH]cc(-c4cc(N(CCO)c5ccccc5)nc(N)n4)c3c2)cn1 [A4, 2-({2-Amino-6-[5-(1-methyl-1H-pyrazol-4-yl)-1H-pyrrolo[2,3-b]-pyridin-3-yl]pyrimidin-4-yl}phenylamino)ethanol] | 1 (≈ 2.34 µM) | 6.60 | 250 | 7.89 | 7.89 | – |
| Cn1cc(-c2cnc3[nH]cc(-c4cc(C5(c6ccccc6)CCCC5)nc(N)n4)c3c2)cn1 [A6, 4-[5-(1-Methyl-1H-pyrazol-4-yl)-1H-pyrrolo[2,3-b]pyridin-3-yl]-6-(1-phenylcyclopentyl)pyrimidin-2-ylamine] | < 1 | 6.20 | – | 6.89 | 6.89 | 625 |
| CC(=O)NCCCN(c1ccccc1)c1cc(-c2c[nH]c3ncc(-c4cnn(C)c4)cc23)nc(N)n1 [A43, N-[3-({2-Amino-6-[5-(1-methyl-1H-pyrazol-4-yl)-1H-pyrrolo-[2,3-b]pyridin-3-yl]pyrimidin-4-yl}phenylamino)propyl]acetamide] | – | 6.37 | 430 | 7.66 | 7.66 | – |
| Cn1cc(-c2cnc3[nH]cc(-c4cc(N(CCC(=O)O)c5ccccc5Cl)nc(N)n4)c3c2)cn1 [A23, 3-[{2-Amino-6-[5-(1-methyl-1H-pyrazol-4-yl)-1H-pyrrolo[2,3-b]-pyridin-3-yl]pyrimidin-4-yl)-(2-chlorophenyl)amino]propionic acid] | – | < 5.00 | – | – | 8.32 | – |
| Cn1cc(-c2cnc3[nH]cc(-c4cc(N(CCN5CCOCC5)c5cccc(F)c5)nc(N)n4)c3c2)cn1 [A28, N4-(3-Fluorophenyl)-6-[5-(1-methyl-1H-pyrazol-4-yl)-1H-pyrrolo[2,3-b]pyridin-3-yl]-N4-(2-morpholin-4-ylethyl)pyrimidine-2,4-diamine] | – | 5.01 | – | – | 7.05 | – |
| CN(c1cc(-c2c[nH]c3ncc(-c4cnn(C)c4)cc23)nc(N)n1)c1ccccc1Cl [A10, N4-(2-Chlorophenyl)-N4-methyl-6-[5-(1-methyl-1H-pyrazol-4-yl)-1H-pyrrolo[2,3-b]pyridin-3-yl]pyrimidine-2,4-diamine] | – | 7.59 | – | – | 8.12 | – |
| Cn1cc(-c2cnc3[nH]cc(-c4cc(N(CCO)c5ccccc5Cl)nc(N)n4)c3c2)cn1 [A16, 2-[{2-Amino-6-[5-(1-methyl-1H-pyrazol-4-yl)-1H-pyrrolo[2,3-b]-pyridin-3-yl]pyrimidin-4-yl}-(2-chlorophenyl)amino]ethanol] | – | 8.59 | – | – | 8.33 | – |
| Cn1cc(-c2cnc3[nH]cc(-c4cc(N(CC(O)CO)c5cccc(C#N)c5)nc(N)n4)c3c2)cn1 (centres unmarked) [A22, 3-[{2-Amino-6-[5-(1-methyl-1H-pyrazol-4-yl)-1H-pyrrolo[2,3-b]-pyridin-3-yl]pyrimidin-4-yl}-(2,3-dihydroxypropyl)amino]-benzonitrile] | – | < 5.00 | – | – | 7.05 | – |

The remaining lines, values ahead:

| solubility [1] [µg/mL] | pIC50 [2] | IC50 ([2]; values in nM) [nM] | pIC50 [3, 4] | pIC50 [3, 5] | IC50 ([2]; values given in μM) [nM] | Compound |
| --- | --- | --- | --- | --- | --- | --- |
| > 46 | – | – | 6.62 | – | > 30000 | CC(=O)NCCCc1cc(-c2c[nH]c3ncc(-c4cnn(C(C)C)c4)cc23)nc(N)n1 [reference compound] |
| < 1 | – | 492 | 7.27 | – | – | CC(C)n1cc(-c2cnc3[nH]cc(-c4cc(C(C)(O)c5ccccc5)nc(N)n4)c3c2)cn1 (centres unmarked) [reference compound] |
| – | – | – | 7.96 | – | > 30000 | CC(C)Cn1cc(-c2cnc3[nH]cc(-c4cc(CCCN)nc(N)n4)c3c2)cn1 [reference compound] |
| 8 (≈ 19.8 µM) | – | – | 7.21 | – | 3500 | CC(C)n1cc(-c2cnc3[nH]cc(-c4cc(C5(O)CCCC5)nc(N)n4)c3c2)cn1 [reference compound] |
